Assay results taken from US20170290886A1, “TREATMENT OF NEURODEVELOPMENTAL DISORDERS” (Academia Sinica, priority 2016, published 2017).
Where no end group is shown, it is not given here.

Key:
Type in all cases: in vivo, rat
MeCP2 SUMOylation = assay: In vitro SUMOylation assay for CA1 tissue
Experimental: Hippocampal CA1 tissue lysate was prepared in the same way as that prepared for western blot. For immunoprecipitating the MeCP2, the clarified lysate (0.5 mg) was immunoprecipitated with 3 μl of anti-MeCP2 antibody (Catalog No. 3456, Cell Signaling) at […] overnight. The protein A agarose beads ([…], 50% slurry, GE Healthcare, Barrington, Ill.) were added to the IP reaction product to catch the immune complex at […] for 3 h. The immune complex on beads were washed three times with washing buffer containing 20 mM HEPES (pH 7.4), 150 mM NaCl, 1 mM EDTA, 1% IGEPAL CA-630, 1 mM DTT, 50 mM β-glycerophosphate, 50 mM NaF, […] PMSF, […] and subject to in vitro SUMOylation reaction with the addition of recombinant PIAS1 protein (3 μl, Catalog No. BML-UW9960, Enzo Life
Sciences, Farmingdale, N.Y.), E1(1 μl), E2 (1 μl) and the SUMO1 (0.5 μl) proteins provided in the kit. In vitro SUMOylation assay was performed using the SUMO linkTM kit according to the manufacturer's instructions (Active Motif, Carlsbad, Calif.) and boiled in Laemmli sample buffer at 95° C. for 10 min. The in vitro SUMOylation product was subject to 8% SDS-PAGE followed by transferring onto the PVDF membrane (Millipore). The membrane was immunoblotted with anti-MeCP2 antibody (1:1000, Catalog No. 3456, Cell Signaling) or anti-SUMO1 antibody (1:4000, Catalog No. 40120, Active Motif). For determination of endogenous MeCP2 SUMOylation after PIAS1 siRNA transfection, no E1, E2, SUMO1 and PIAS1 proteins were added to the IP reaction product. The remaining procedures were the same as that for carrying out the in vitro SUMOylation assay.
Rats were anesthetized with pentobarbital (40 mg/kg) and subject to stereotaxic surgery. Two 23-gauge, stainless-steel, thin-wall cannulae were implanted bilaterally to the CA1 area of rat brain at the following coordinates: 3.5 mm posterior to the bregma, ±2.5 mm lateral to the midline and 3.4 mm ventral to the skull surface. After recovery from the surgery, NMDA (2 μg/μl), IGF-1 (100 ng/ml), CRF (100 ng/μl) and dexamethasone (30 ng/μl) were directly injected to the CA1 area at a rate of 0.1 μl/min. A total of 0.7 μl was injected to each side. For transient Mecp2 plasmid DNA transfection, 0.7 μg/μl plasmid DNA complex ([…]) was injected directly to CA1 area bilaterally in the rat brain using the non-viral transfection agent polyethyleneimine (PEI). Before injection, plasmid DNA was diluted in 5% glucose to a stock concentration of 2.77 μg/μl. Branched PEI of 25 kDa (Sigma, St. Louis, Mo.) was diluted to 0.1 M concentration in 5% glucose and added to the DNA solution. Immediately before injection, 0.1 M PEI was added to reach a ratio of PEI nitrogen per DNA phosphate equals to 10. […]

PIAS1 = PIAS1 expression in CA1 area (western blot); conditions: siRNA 8 pmol; FIG. 2h lower panel
Experimental: (§1) The E3 SUMO-protein ligase PIAS1, MeCP2, Flag, V5 and Myc, the clarified lysate (0.5 mg) was immunoprecipitated by mixed with 0.5 μl of anti-PIAS1 antibody (Catalog No. 2474-1, Epitomics, Burlingame, Calif.), 2 μl of anti-MeCP2 antibody (Catalog No. 3456, Cell Signaling, Danvers, Mass.), 2 μl of anti-Flag M2 antibody (Catalog No. F1804, Sigma-Aldrich, St. Louis, Mo.), 1 μl of anti-VS antibody (Catalog No. MCA2895, AbD Serotec, Kidlington, UK) and 2 μl of anti-Myc antibody (Catalog No. 05-419, Millipore, Bedford, Mass.) at 4° C., and allowed the mixture to react overnight. Twenty microliter of rabbit or mouse IgG was used in the control group. The protein A or G magnetic beads ([…], 50% slurry, GE Healthcare, Barrington, IL) were added to the IP reaction product to catch the immune complex at 4° C. for 3 h. The immune complex on beads were washed three times with washing buffer containing 20 mM HEPES (pH 7.4), 150 mM NaCl, 1 mM EDTA, 1% IGEPAL CA-630, 1 mM DTT, 50 mM β-glycerophosphate, 50 mM NaF, 10 mg/ml PMSF, 4 µg/ml aprotinin, 4 μg/ml leupeptin and 4 μg/ml pepstatin, and then subject to 8% SDS-PAGE followed by transferring onto the Nitrocellulose (NC) membrane (GE Healthcare). […] The protein bands were quantified by using the NIH Image J Software. […]

[1] = system: MeCP2 phosphorylation at Ser-421; assay: MeCP2 phosphorylation at Ser-421 in CA1 area (western blot); conditions: 1 hr
Experimental: as §1

PIAS1 siRNA: siRNA against PIAS1, SEQ ID NO: 18 and 19 (chain 1 UCCGGAUCAUUCUAGAGCUTT; chain 2 AGCUCUAGAAUGAUCCGGATT; chemistry not given here)
level of endogenous MeCP2 SUMOylation (MeCP2 SUMOylation; siRNA 8 pmol to CA1 area, 48 hrs later, vs control siRNA, FIG. 2g, 2h): significantly decrease the level of endogenous MeCP2 SUMOylation | PIAS1 expression in CA1 area (PIAS1): decreased PIAS1 expression

IGF-1: Insulin-like growth factor-1, purchased from Sigma-Aldrich
phosphorylation level of MeCP2 at Ser-421 ([1]; IGF-1 100 ng/ml injected to CA1 area, FIG. 3c): increased the phosphorylation level of MeCP2 at Ser-421 | level of MeCP2 SUMOylation (MeCP2 SUMOylation; IGF-1 100 ng/ml injected to CA1 area, 1 hr later, vs PBS, FIG. 3c): significantly increased the level of MeCP2 SUMOylation

CRF: Corticotropin-releasing factor, purchased from Sigma-Aldrich (SEEPPISLDLTFHLLREVLEMARAEQLAQQAHSNRKLMEII; ends and bridges not checked; UniProt P06850 154-194, looked up)
level of MeCP2 SUMOylation (MeCP2 SUMOylation; CRF injected to CA1 area, 1 hr later, vs PBS, FIG. 3d): markedly increased the level of MeCP2 SUMOylation

CN[C@H](CC(=O)O)C(=O)O [NMDA, N-methyl-D-aspartate]
phosphorylation level of MeCP2 at Ser-421 ([1]; NMDA 2 μg/μl injected to CA1 area, FIG. 3b): increased the phosphorylation level of MeCP2 at Ser-421 | level of MeCP2 SUMOylation (MeCP2 SUMOylation; NMDA 2 μg/μl injected to CA1 area, 1 hr, vs Flag-vector + PBS, FIG. 3b): increased the level of MeCP2 SUMOylation
